# Results taken from patent US20220211614A1, “COMPOSITIONS AND IMPLANTABLE DEVICES” (Commonwealth Scientific and Industrial Research Organisation, priority 2019, published 2022).
# No end group written: not given here.
# Experiments:
# [1] = cited from earlier work
# [2] = molecular target: relaxin family peptide receptor 1 (RXFP1), stably expressed on human embryonic kidney cells (HEK-RXFP1) (UniProt Q9HBX9); assay: cell-based or functional assay
# [3] = molecular target: T1, relaxin family peptide receptor 1 (RXFP1) (Homo sapiens, UniProt Q9HBX9); assay: HEK-RXFP1 cAMP reporter gene assay; format: cell-based
# T1 construct: expressed in transfected cells; host or cells: HEK (human embryonic kidney) cells stably expressing RXFP1, with pCRE beta-galactosidase reporter
# T1 sequence (Q9HBX9 1-757): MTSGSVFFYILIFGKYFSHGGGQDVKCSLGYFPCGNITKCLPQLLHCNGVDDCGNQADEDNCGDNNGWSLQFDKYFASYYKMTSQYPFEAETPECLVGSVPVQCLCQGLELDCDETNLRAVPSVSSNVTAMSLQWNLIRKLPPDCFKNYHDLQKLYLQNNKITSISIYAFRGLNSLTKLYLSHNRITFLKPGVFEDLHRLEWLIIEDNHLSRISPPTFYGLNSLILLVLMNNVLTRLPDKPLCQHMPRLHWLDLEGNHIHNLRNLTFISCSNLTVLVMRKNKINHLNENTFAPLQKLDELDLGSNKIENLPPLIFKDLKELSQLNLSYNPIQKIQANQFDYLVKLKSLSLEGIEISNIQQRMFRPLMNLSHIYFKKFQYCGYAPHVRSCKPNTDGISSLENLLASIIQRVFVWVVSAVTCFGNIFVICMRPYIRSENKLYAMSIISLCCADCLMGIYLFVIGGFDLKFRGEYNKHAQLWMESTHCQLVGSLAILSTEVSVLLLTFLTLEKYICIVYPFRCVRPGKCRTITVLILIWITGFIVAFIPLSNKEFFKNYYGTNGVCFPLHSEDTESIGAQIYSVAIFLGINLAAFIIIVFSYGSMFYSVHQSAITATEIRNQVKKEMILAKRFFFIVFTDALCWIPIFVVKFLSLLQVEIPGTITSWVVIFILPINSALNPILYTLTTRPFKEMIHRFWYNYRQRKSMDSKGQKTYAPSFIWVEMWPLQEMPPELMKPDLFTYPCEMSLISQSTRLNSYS
# Method: HEK-RXFP1 cAMP Reporter Gene Assay
# B7-33 activity at RXFP1 was assessed using a cAMP reporter gene assay as previously described (Scott et al. J. Biol. Chem. 2006, 281:34942-3495) with slight modification. PLGA B7-33 well plate coatings, and peptide controls in the absence of PLGA (dried peptide), were compared to solubilized B7-33 solution standards ([…]) and H2 relaxin (10 nM). Wells were seeded (25,000 cells per well, 100 μL) with dispersed HEK-RXFP1-pCRE reporter cells and incubated for 6 hours. Cells were then lysed and the reporter gene stimulated β-galactosidase activity was measured using a colorimetric substrate to evaluate the relative cAMP responses. Ligand-induced cAMP stimulation was expressed as a % of maximal response to H2 relaxin. Each data point was measured in triplicate and each experiment conducted independently at least three separate times.
molecule,measurement,setting,value
CC(C)Oc1ccccc1C(=O)Nc1ccccc1C(=O)Nc1cccc(S(=O)(=O)C(F)(F)F)c1 [ML290],in vivo half-life,[1],approximately 8 hours
B7-33 peptide (single B chain peptide analogue of H2 relaxin),"EC50, cAMP reporter gene assay (beta-galactosidase, colorimetric) in HEK-RXFP1 cells; B7-33 peptide solution control",[2],1000 nM
same,"EC50, cAMP reporter gene assay (beta-galactosidase, colorimetric) in HEK-RXFP1 cells; PLGA-free dried peptide control",[2],1000 nM
VIKLSGRELVRAQIAISGMSTWSKRSL-NH2 [B7-33],retained activity against the RXFP1 receptor after drying/oxidation,"[3]; HEK-RXFP1 cell assay (FIG. 2), oxidized species of B7-33 observed by MALDI",retains activity against the RXFP1 receptor
same,EC50,"[3]; cAMP reporter gene (β-galactosidase), HEK-RXFP1 cells, 6 hours incubation",1000 nM
recombinant human relaxin 2,in vivo half-life,[1],40 min
